Where no end group is shown, it is not given here.
Experiments:
[1] = system: HPV E7 oncoprotein with IKK complex or β-catenin destruction complex proteins; experiment: Gaussia princeps luciferase complementation assay (GPCA); type: binding, human papillomavirus / human; settings: for GPCA signal, interaction with CK1a1: partner CK1a1; for GPCA signal, interaction with CK1 alpha 1: partner CK1 alpha 1, Fig 4M; for GPCA signal, interaction with CK1e: partner CK1e; for GPCA signal, interaction with CK1g1: partner CK1g1; for GPCA signal, interaction with CK1g2: partner CK1g2; for GPCA signal, interaction with CK1g3: partner CK1g3; for GPCA signal, interaction with CK1d: partner CK1d; for GPCA signal, interaction with DVL1: partner DVL1; for GPCA signal, interaction with DVL2: partner DVL2; for GPCA signal, interaction with DVL3: partner DVL3; for GPCA signal, interaction with GSK3B: partner GSK3B; for GPCA signal, interaction with NEMO: partner NEMO, Fig 3K; for GPCA signal, interaction with PPP2CA: partner PPP2CA; for GPCA signal, interaction with PPP2CB: partner PPP2CB
Description: The coding (or mutated/truncated) sequences of HPV E7 from several alpha and beta genotypes (alpha: HPV16, 18, 33, and 39; beta: HPV8, 38, and 49) were transferred into Gateway-compatible GPCA destination vector pSPICA-N2. The open reading frames (ORFs) encoding proteins involved in IKK or β-catenin destruction complex were obtained from the human ORFeome v7.1 and 8.1 (Dana-Farber Cancer Institute, Boston, MA, USA) and were transferred into pSPICA-N1 plasmid. GPCA expression vectors (pSPICA-N1 and N2) allow the expression of two complementary fragments of the G. princeps luciferase (Gluc1 or Gluc2) linked to the N-terminal ends of tested proteins. All constructions were controlled by Sanger sequencing (GIGA-Genomics platform, University of Liege). GPCA experiments were then performed as extensively described previously[90],[91]. Briefly, HEK-293T cells were simultaneously transfected with 100 ng of pSPICA-N1-IKK or β-catenin destruction complex proteins and 100 ng of pSPICA-N2-E7 using PEI Max (Polysciences, Warrington, PA, USA). After 24 h, cells were washed, lysed and luciferase enzymatic activity was measured for 10 seconds using a Centro LB960 microplate luminometer (Berthold Technologies, Bad Wildbad, Germany). The luciferase assay system was purchased from Promega. As previously described, results were expressed as a luminescence value normalized over the sum of controls [normalized luminescence ratio (NLR)].

[2] = system: Lactobacillus crispatus DSM 20356; experiment: Antimicrobial assay (surviving colonies, CFU count); type: cell-based; settings: peptides pre-incubated with 2 mM DTT 30 min 37 °C; 6 h with bacteria; n = 6
Description: Bacterial strains Lactobacillus crispatus DSM 20356, Lactobacillus iners CIP 105923 and Garnerella vaginalis CCUG 43336 were kindly provided by the Department of Clinical Microbiology at University Hospital Center of Liege. Lactobacillus jensenii LMG 6414 was obtained from BCCM/LMG Bacteria Collection (University of Gent, Belgium). Log-phase bacteria were grown on Columbia agar with 5% sheep blood (Becton Dickinson, Franklin Lakes, NJ, USA) at 37 °C in a humidified CO2 atmosphere (Lactobacilli) or in anaerobic jars (G. vaginalis). To analyze the antimicrobial effect of innate peptides expressed by vaginal/cervical mucosa, 5 × 10^4 colony-forming unit (CFU)/ml were mixed with different peptides (concentration range: 1–10 µg/ml) in 10 mM sodium phosphate buffer (SPB) (final volume 100 µl) and incubated for 45 min to 9 h at 37 °C. Where indicated, the peptides were incubated with 2 mM dithiothreitol (DTT) (Invitrogen, Carlsbad, CA, USA) for 30 min at 37 °C before adding the bacteria. In indicated experiments, incubation was carried out in potassium phosphate buffer (KPB) (pH: 7.4, 10 mM). The following peptides were tested: HβD1 (PeptaNova, Sandhausen, Germany), HβD2 (PeptaNova), HβD3 (PeptaNova), HβD4 (PeptaNova), HD-5 (PeptaNova), HD-6 (PeptaNova), elafin (PeptaNova), S100A7 (Abnova, Taipei City, Taiwan) and SLPI (R&D Systems, Minneapolis, MI, USA). Bacterial suspensions were then plated on Columbia Blood agar plates for 24–48 h to determine CFU. High-resolution images for each condition were taken. Colony detection and counts were finally performed using ImageJ software (NIH, Bethesda, MD, USA) and verified by manual counting.

HPV16 E7
GPCA signal, interaction with Beta-TrCP ([1]; partner Beta-TRCP, Fig 4L, replicate 1): 8.518 | GPCA signal, interaction with Beta-TrCP ([1]; partner Beta-TRCP, Fig 4L, replicate 2): 8.927 | GPCA signal, interaction with Beta-TrCP ([1]; partner Beta-TRCP, Fig 4L, replicate 3): 6.394 | GPCA signal, interaction with Beta-TrCP ([1]; partner Beta-TrCP, Fig 4N, replicate 1): 8.216 | GPCA signal, interaction with Beta-TrCP ([1]; partner Beta-TrCP, Fig 4N, replicate 2): 18.6197 | GPCA signal, interaction with Beta-TrCP ([1]; partner Beta-TrCP, Fig 4N, replicate 3): 12.6285 | GPCA signal, interaction with CK1a1 ([1]; Fig 4L, replicate 1): 4.195 | GPCA signal, interaction with CK1a1 ([1]; Fig 4L, replicate 2): 4.4237 | GPCA signal, interaction with CK1a1 ([1]; Fig 4L, replicate 3): 4.5837 | GPCA signal, interaction with CK1 alpha 1 ([1]; replicate 1): 4.747 | GPCA signal, interaction with CK1 alpha 1 ([1]; replicate 2): 7.358 | GPCA signal, interaction with CK1 alpha 1 ([1]; replicate 3): 7.5013 | GPCA signal, interaction with CK1e ([1]; Fig 4L, replicate 1): 2.875 | GPCA signal, interaction with CK1e ([1]; Fig 4L, replicate 2): 2.433 | GPCA signal, interaction with CK1e ([1]; Fig 4L, replicate 3): 2.765 | GPCA signal, interaction with CK1g1 ([1]; Fig 4L, replicate 1): 13.8547 | GPCA signal, interaction with CK1g1 ([1]; Fig 4L, replicate 2): 9.7345 | GPCA signal, interaction with CK1g1 ([1]; Fig 4L, replicate 3): 4.265 | GPCA signal, interaction with CK1g2 ([1]; Fig 4L, replicate 1): 8.184 | GPCA signal, interaction with CK1g2 ([1]; Fig 4L, replicate 2): 7.066 | GPCA signal, interaction with CK1g2 ([1]; Fig 4L, replicate 3): 7.286 | GPCA signal, interaction with CK1g3 ([1]; Fig 4L, replicate 1): 8.632 | GPCA signal, interaction with CK1g3 ([1]; Fig 4L, replicate 2): 7.582 | GPCA signal, interaction with CK1g3 ([1]; Fig 4L, replicate 3): 7.146 | GPCA signal, interaction with CK1d ([1]; Fig 4L, replicate 1): 4.409 | GPCA signal, interaction with CK1d ([1]; Fig 4L, replicate 2): 3.975 | GPCA signal, interaction with CK1d ([1]; Fig 4L, replicate 3): 4.309 | GPCA signal, interaction with DVL1 ([1]; Fig 4L, replicate 1): 3.768 | GPCA signal, interaction with DVL1 ([1]; Fig 4L, replicate 2): 3.207 | GPCA signal, interaction with DVL1 ([1]; Fig 4L, replicate 3): 4.087 | GPCA signal, interaction with DVL2 ([1]; Fig 4L, replicate 1): 1.678 | GPCA signal, interaction with DVL2 ([1]; Fig 4L, replicate 2): 1.485 | GPCA signal, interaction with DVL2 ([1]; Fig 4L, replicate 3): 1.904 | GPCA signal, interaction with DVL3 ([1]; Fig 4L, replicate 1): 1.994 | GPCA signal, interaction with DVL3 ([1]; Fig 4L, replicate 2): 1.934 | GPCA signal, interaction with DVL3 ([1]; Fig 4L, replicate 3): 1.325 | GPCA signal, interaction with GSK3B ([1]; Fig 4L, replicate 1): 9.854 | GPCA signal, interaction with GSK3B ([1]; Fig 4L, replicate 2): 8.937 | GPCA signal, interaction with GSK3B ([1]; Fig 4L, replicate 3): 8.081 | GPCA signal, interaction with NEMO ([1]; replicate 1): 28.7366 | GPCA signal, interaction with NEMO ([1]; replicate 2): 37.4793 | GPCA signal, interaction with NEMO ([1]; replicate 3): 29.9172 | GPCA signal, interaction with PPP2CA ([1]; Fig 4L, replicate 1): 1.175 | GPCA signal, interaction with PPP2CA ([1]; Fig 4L, replicate 2): 1.457 | GPCA signal, interaction with PPP2CA ([1]; Fig 4L, replicate 3): 0.9985 | GPCA signal, interaction with PPP2CB ([1]; Fig 4L, replicate 1): 2.065 | GPCA signal, interaction with PPP2CB ([1]; Fig 4L, replicate 2): 1.7166 | GPCA signal, interaction with PPP2CB ([1]; Fig 4L, replicate 3): 1.3201

HβD3: epithelial member of the defensin family, host defense peptide (PeptaNova) (GIINTLQKYYCRVRGGRCAVLSCLPKEEQIGKCSTRGRKCCRRKK; not fully specified; ends and bridges not checked; UniProt P81534 23-67, looked up)
antimicrobial/protective activity in reducing environment [2]: slight increase in the antibacterial activity

From PMC8885657, “HPV infection alters vaginal microbiome through down-regulating host mucosal innate peptides used by Lactobacilli as amino acid sources” (Nature Communications, 2022)
